Tested on: adults with blunt TBI, Glasgow Coma Scale score 4-12
From the text: We also hoped to detect signals of activity.
According to the U.S. Food and Drug Administration, an “adverse event” is any undesirable medical event occurring to a subject in a clinical trial, whether or not related to the study drug. This includes events not seen at baseline, or worsened if present at baseline. “Serious adverse events” are defined as death, immediate risk of death, or suspicion that use or continued use would result in the patient's death, prolongation of existing hospitalization, persistent or significant disability/incapacity, or a congenital anomaly/birth defect.
These included any thromboembolic event (deep vein thrombosis, thrombophlebitis, ischemic myocardial infarction, pulmonary embolism, stroke or transient ischemic attack), elevated liver enzymes, temperature elevation, allergic reactions, and hyperglycemia. […] An independent internal safety monitor made the determination if an adverse event was associated with study treatment. Both the FDA and an independent NIH-appointed data safety monitoring board independently reviewed these determinations.
Selection of participants: Consecutive adult victims of blunt TBI who reached Grady within 11 hours of injury with a post-stabilization or “index” Glasgow Coma Scale score (iGCS) of 4-12 were eligible for enrollment (FIG. 5).
Interventions: Following proxy consent, patients were placed in one of 8 clinical subgroups defined by gender (male versus female), race (black versus all others) and TBI severity (moderate versus severe). […] This asymmetric approach was adopted at the request of our NIH-appointed DSMB to maximize the number of patients receiving study drug while maintaining blinding.
Whenever a patient was enrolled, the next kit in sequence for that subgroup was used to prepare infusions. […] The remaining vials were used to prepare 5 subsequent 12-hour infusions at the same standard rate of 10 mls/hour for a total of 3 days of treatment. Details of drug monitoring are reported elsewhere (Wright et al. (2005) J Clin Pharmacol 45(6):640-648).
Methods of Measurement: To assess drug safety, study personnel rounded daily to document the occurrence of adverse events (AEs) or serious adverse events (SAEs). Hourly vital signs (blood pressure, heart rate, respiratory rate, temperature, and pulse oximetry), intracranial pressure readings, and other parameters (mean arterial pressure, cerebral perfusion pressure, and fluid balance), were abstracted from each patient's chart. Laboratory values were obtained from the hospital's information system, and concomitant medications and interventions were noted.
Whenever an SAE occurred, an independent board-certified neurosurgeon assessed its potential relationship to study treatment using pre-defined scale. SABs were reported within 24 hours to the Institutional Review Board (IRB), our NIH-appointed Data Safety Monitoring Board (DSMB), and the U.S. Food and Drug Administration. All other adverse events were reported to on a weekly basis.
The infusion was stopped if a patient experienced an anaphylactic reaction, a major thromboembolic event, an unexplained elevation of serum aspartate aminotransferase (AST) or alanine aminotransferase (ALT) to a level greater than 5,000 IU, or a serum total bilirubin level greater than 10 mg/dl. […] These rules were based on O'Brien-Fleming boundaries (O'Brien and Fleming (1979) Biometrics 35(3):549-556), constructed using an alpha spending approach (DeMets and Lan (1994) Statistics in Medicine 13(13-14):1341-1352; discussion 1353-1346).
Primary Data Analysis—Treatment and placebo groups were compared with respect to a variety of demographic, historical and prehospital characteristics to ensure that important independent predictors of outcome were equally distributed.

SMILES: CC(=O)[C@H]1CC[C@H]2[C@@H]3CCC4=CC(=O)CC[C@]4(C)[C@H]3CC[C@]12C [progesterone, pregn-4-ene-3,20-dione]
- 30-day adverse event rate: Acute respiratory distress syndrome (both, human, in vivo, 30 days): 2.6%
- 30-day adverse event rate: Cardiac Arrhythmia (both, human, in vivo, 30 days): 5.2%
- 30-day adverse event rate: Cholestatic Jaundice (both, human, in vivo, 30 days): 6.5%
- 30-day adverse event rate: Fever (both, human, in vivo, 30 days): 70.1%
- 30-day adverse event rate: Gastrointestinal Bleed (both, human, in vivo, 30 days): 5.2%
- 30-day adverse event rate: Hyperglycemia-non DM (both, human, in vivo, 30 days): 27.3%
- 30-day adverse event rate: Hypertension (both, human, in vivo, 30 days): 11.7%
- 30-day adverse event rate: Hypotension (both, human, in vivo, 30 days): 9.1%
- 30-day adverse event rate: Hypothermia (both, human, in vivo, 30 days): 5.2%
- 30-day adverse event rate: Hypoxemia (both, human, in vivo, 30 days): 11.7%
- 30-day adverse event rate: Increase Liver Enzyme (both, human, in vivo, 30 days): 6.5%
- 30-day adverse event rate: Phlebitis at Injection Site (both, human, in vivo, 30 days): 1.3%
- 30-day adverse event rate: Rash or Hives (both, human, in vivo, 30 days): 2.6%
- 30-day adverse event rate: Seizures (both, human, in vivo, 30 days): 5.2%
- 30-day adverse event rate: Shock (both, human, in vivo, 30 days): 2.6%
- 30-day adverse event rate: Suspected Pneumonia (both, human, in vivo, 30 days): 11.7%
- 30-day adverse event rate: Syndrome of inappropriate ADH (both, human, in vivo, 30 days): 1.3%
- 30-day adverse event rate: Tachycardia (both, human, in vivo, 30 days): 24.7%
- 30-day adverse event rate: Thromboembolic Disease (both, human, in vivo, 30 days): 3.9%
- Mean Duration of Pressures Exceeding Threshold Values: CPP < 60 (in vivo): 6.9 h
- Mean Duration of Pressures Exceeding Threshold Values: ICP > 25 (in vivo): 5.0 h
- Mean Duration of Pressures Exceeding Threshold Values: MAP < 70 (in vivo): 2.5 h
- Mean Duration of Pressures Exceeding Threshold Values: Systolic BP < 90 (in vivo): 2.7 h
- Mean Frequency of Pressures Exceeding Threshold Values: CPP < 60 (in vivo): 92.9 Rate/1000 consecutive readings
- Mean Frequency of Pressures Exceeding Threshold Values: ICP > 25 (in vivo): 70.2 Rate/1000 consecutive readings
- Mean Frequency of Pressures Exceeding Threshold Values: MAP < 70 (in vivo): 29.5 Rate/1000 consecutive readings
- Mean Frequency of Pressures Exceeding Threshold Values: Systolic BP < 90 (in vivo): 32.1 Rate/1000 consecutive readings
- Percent of Patients with Clinical Values Exceeding the Threshold: CPP < 60 (in vivo): 48.7%
- Percent of Patients with Clinical Values Exceeding the Threshold: ICP > 25 (in vivo): 32.4%
- Percent of Patients with Clinical Values Exceeding the Threshold: MAP < 70 (in vivo): 29.0%
- Percent of Patients with Clinical Values Exceeding the Threshold: Systolic BP < 90 (in vivo): 29.0%
- adverse events specifically ascribed to administration (in vivo): two cases of superficial phlebitis at the IV site
- aggregate and individual rates of adverse and serious adverse events versus placebo (in vivo): not different between groups
- patients who developed a deep vein thrombosis (in vivo): Three patients
- serious adverse events attributed to study drug (in vivo): No serious adverse events were attributed to progesterone
- slope of treatment by time interaction term for mean temperature (in vivo): −0.0055
- 30-day adverse event rate: Central nervous system infection (progesterone group, n=77): 1.3%
- 30-day adverse event rate: Death within 30 days (progesterone group, n=77): 13.0%
- 30-day adverse event rate: Sepsis (progesterone group, n=77): 2.6%
